# Publication PMC5725799, “Comparative binding properties of the tau PET tracers THK5117, THK5351, PBB3, and T807 in postmortem Alzheimer brains” (Alzheimer's Research & Therapy, 2017)
# Where “and” joins values, the source holds several entries; their conditions need not be identical. Equal values may be shown once.
# Key:
# tau [1] = target: tau (Homo sapiens, UniProt P10636); experiment: Competition binding assay with ^3H-THK5351 in postmortem hippocampus brain homogenates; conditions: vs ^3H-THK5351 1.5 nM, AD hippocampus homogenate; read-out: Ki2 (high-affinity site)
# Procedure: Postmortem brain tissues from three patients with AD and three healthy control subjects were used for the in vitro binding assays. All the brain tissue, which came from the Netherlands Brain Bank, had been homogenized in PBS containing a protease/phosphatase inhibitor (see Table 1).
# After 2-h incubation at room temperature, the binding assay was terminated by filtration through glass fiber filters presoaked for at least 3 h in 0.3% polyethylenimine. To do so, the filters were rinsed and filtered three times using cold binding buffer, and then the radiation on the filter was quantified using a Beckman Coulter scintillation counter. The data for the regional binding distribution studies were analyzed using Prism version 7.0 software for Mac (GraphPad Software Inc., La Jolla, CA, USA), and two-way analysis of variance with multiple comparisons was performed.
# [2] = target: T1, monoamine oxidase B (MAO-B) (Homo sapiens, UniProt P27338); experiment: Competition binding with ^3H-deprenyl in hippocampus and putamen brain homogenates (off-target binding); conditions: vs ^3H-deprenyl 10 nM, two AD cases
# T1 construct: postmortem brain homogenates from the hippocampus and putamen (0.2 mg/ml tissue) of two patients with AD; tissue Netherlands Brain Bank; host or cells: postmortem human AD hippocampus and putamen homogenate
# T1 sequence (P27338 1-520): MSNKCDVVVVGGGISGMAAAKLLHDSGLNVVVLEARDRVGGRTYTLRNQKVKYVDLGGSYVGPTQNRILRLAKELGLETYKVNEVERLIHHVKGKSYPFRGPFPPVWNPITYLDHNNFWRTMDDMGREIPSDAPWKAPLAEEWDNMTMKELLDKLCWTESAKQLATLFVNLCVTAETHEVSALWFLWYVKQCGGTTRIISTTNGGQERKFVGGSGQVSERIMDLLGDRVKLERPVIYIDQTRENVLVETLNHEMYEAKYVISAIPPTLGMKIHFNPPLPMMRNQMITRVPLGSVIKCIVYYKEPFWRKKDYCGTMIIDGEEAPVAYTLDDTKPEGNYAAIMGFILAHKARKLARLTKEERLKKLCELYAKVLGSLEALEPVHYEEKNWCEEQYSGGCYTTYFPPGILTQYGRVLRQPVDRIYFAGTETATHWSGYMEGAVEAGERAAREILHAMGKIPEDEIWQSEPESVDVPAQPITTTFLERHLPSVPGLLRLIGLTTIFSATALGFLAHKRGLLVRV
# Procedure: Competition binding studies using postmortem brain homogenates from the hippocampus and putamen (0.2 mg/ml tissue) of two patients with AD were performed using ^3H-deprenyl (10 nM in Na-K phosphate buffer, pH 7.4) and increasing concentrations of unlabeled THK5117 (10^−14 to 10^−5 M) and T807 (10^−14 to 10^−5 M) to determine the off-target binding of the tau PET tracers. After 2-h incubation at room temperature, the binding assay was terminated by filtration through glass fiber filters presoaked for at least 3 h in 0.3% polyethylenimine. To do so, the filters were rinsed and filtered three times using cold binding buffer, and then the radiation on the filter was quantified using a Beckman Coulter scintillation counter. The data from all the binding studies were analyzed using Prism version 7.0 software.
# tau [3] = experiment: ^3H-THK5351 competition autoradiography with unlabeled THK5351, T807 and deprenyl; type: binding, human; conditions: cortical areas
# Procedure: Six adjacent sections from AD1 (see Table 1) were used for competition autoradiography of unlabeled THK5351, T807, and deprenyl. After reaching room temperature, the frozen sections were preincubated for 10 minutes with PBS (pH 7.4) and then incubated for 1 h at room temperature with ^3H-THK5351 (1.5 nM) in addition to 10 μM unlabeled THK5351; 10 μM unlabeled deprenyl; 10 μM unlabeled T807; 10 μM unlabeled THK5351 and 10 μM unlabeled deprenyl; 10 μM unlabeled T807 and 10 μM unlabeled deprenyl. The sections were rinsed three times in cold buffer for 5 minutes, followed by a quick dip in cold distilled water. Nonspecific binding was determined using 10 μM unlabeled THK5351 or 10 μM unlabeled THK5117. […]
# For all the autoradiography studies, the regions of interest were drawn manually on the autoradiogram using multigauge software and were used for the semiquantitative analyses. Photostimulated luminescence per square millimeter (PSL/mm^2) was transformed to picomoles per cubic millimeter using a transformation factor that took into account the resolution of the image, the pixel value for the concentration of ligand, and the thickness of the sections: (PSL/mm^2 value)/([pixel value per pmol] × [(resolution/1000)^2] × [cryosection thickness]/1000).
# Chain of tau (Homo sapiens, UniProt P10636) (P10636 623-695 limits assumed): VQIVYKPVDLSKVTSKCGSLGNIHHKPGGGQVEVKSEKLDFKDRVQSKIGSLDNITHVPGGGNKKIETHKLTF
SMILES,Ki (tau [1]) [µM],Ki ([2]; hippocampus homogenate),Ki ([2]; putamen homogenate),^3H-THK5351 binding displaced (tau [3])
Fc1ccc(-c2ccc3c(c2)[nH]c2ccncc23)cn1 [T807],0.078,0.227 µM and > 0.2 µM,0.135 µM and ~0.15 µM,70–80%
CNc1ccc(-c2ccc3cc(OC[C@H](O)CF)ccc3n2)cn1 [THK5351],0.016,,,70–80%
